The results in this text go back to PubChem BioAssay AID330 (DTP/NCI, 2004).

Where “and” joins values, the source holds several entries; their conditions need not be identical. Equal entries are not always repeated. Toxic doses and inconclusive results are not listed.

The test system of the assay is P388 leukemia ip, CD2F1 mice, survival T/C. The assay is described as follows: NCI In Vivo Anticancer Drug Screen. Data for tumor model P388 Leukemia (intraperitoneal) in CD2F1 (CDF1) mice. Conditions: endpoint: median survival time, higher = longer survival. A digest of the protocol: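 Mice carrying the transplanted tumor received test compound or vehicle. Survival was recorded in each group, and the value is the treated-group measurement divided by that of the vehicle-treated control group.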

Where [1] appears, read: dose: 0.06 mg/kg/injection, schedule: Q01DX009 (ip), vehicle: water.
[2] abbreviates: dose: 0.13 mg/kg/injection, schedule: Q01DX009 (ip), vehicle: water.
The mark [3] stands for this setting: dose: 0.25 mg/kg/injection, schedule: Q01DX009 (ip), vehicle: water.
Where [4] appears, read: dose: 4.0 mg/kg/injection, schedule: Q04DX003 (ip), vehicle: water.
The mark [5] stands for this setting: dose: 60.0 mg/kg/injection, schedule: Q01DX005 (ip), vehicle: saline with Tween-80.
The mark [6] stands for this setting: dose: 120.0 mg/kg/injection, schedule: Q01DX005 (ip), vehicle: saline with Tween-80.
Setting [7] is: dose: 240.0 mg/kg/injection, schedule: Q01DX005 (ip), vehicle: saline with Tween-80.
The mark [8] stands for this setting: dose: 25.0 mg/kg/injection, schedule: Q01DX009 (ip), vehicle: saline with Tween-80.
Where [9] appears, read: dose: 50.0 mg/kg/injection, schedule: Q01DX009 (ip), vehicle: saline with Tween-80.
[10] abbreviates: dose: 100.0 mg/kg/injection, schedule: Q01DX009 (ip), vehicle: saline with Tween-80.
[11] abbreviates: dose: 50.0 mg/kg/injection, schedule: Q01DX009 (ip), vehicle: saline.
[12] abbreviates: dose: 100.0 mg/kg/injection, schedule: Q01DX009 (ip), vehicle: saline.
Setting [13] is: dose: 200.0 mg/kg/injection, schedule: Q01DX009 (ip), vehicle: saline.

In the case of `COc1cccc2c1C(=O)c1c(O)c3c(c(O)c1C2=O)C[C@@](O)(C(=O)CO)C[C@@H]3OC1CC(N(C)C)C(O)C(C)O1` (stereo partly drawn), the T/C runs as follows: under setting [1], 108 % of control; under setting [2], 119 % of control; (dose: 0.19 mg/kg/injection, schedule: Q04DX003 (ip), vehicle: water) 104 % of control; under setting [3], 150 % of control; (dose: 0.38 mg/kg/injection, schedule: Q04DX003 (ip), vehicle: water) 100 % of control; (dose: 0.5 mg/kg/injection, schedule: Q01DX009 (ip), vehicle: water) 160 % of control and 164 % of control. For the same compound, the T/C (dose: 0.75 mg/kg/injection, schedule: Q04DX003 (ip), vehicle: water) is 104 % of control; the T/C (dose: 0.86 mg/kg/injection, schedule: Q04DX003 (ip), vehicle: water) was 154 % of control; the T/C (dose: 1.44 mg/kg/injection, schedule: Q04DX003 (ip), vehicle: water) is 163 % of control; the T/C (dose: 1.5 mg/kg/injection, schedule: Q04DX003 (ip), vehicle: water) is 106 % of control; the T/C (dose: 2.0 mg/kg/injection, schedule: Q01DX009 (ip), vehicle: water) is 101 % of control; the T/C (dose: 2.4 mg/kg/injection, schedule: Q04DX003 (ip), vehicle: water) is 175 % of control. For the same compound, the T/C by setting is: (dose: 2.5 mg/kg/injection, schedule: Q01DX001 (ip), vehicle: water) 153 % of control; (dose: 3.0 mg/kg/injection, schedule: Q04DX003 (ip), vehicle: water) 113 % of control; under setting [4], 117 % of control; (dose: 5.0 mg/kg/injection, schedule: Q01DX001 (ip), vehicle: water) 153 % of control; (dose: 6.0 mg/kg/injection, schedule: Q04DX003 (ip), vehicle: water) 123 % of control; (dose: 6.67 mg/kg/injection, schedule: Q04DX003 (ip), vehicle: water) 97 % of control.

Regarding `C1=C(c2ccccc2)N2CCCNC2(c2ccccc2)CS1` (stereo not drawn), the T/C was 90 % of control (dose: 100.0 mg/kg/injection, schedule: Q04DX002 (ip), vehicle: saline with Tween-80); 90 % of control (dose: 200.0 mg/kg/injection, schedule: Q04DX002 (ip), vehicle: saline with Tween-80); 88 % of control (dose: 400.0 mg/kg/injection, schedule: Q04DX002 (ip), vehicle: saline with Tween-80).

On to `COc1cccc(N(CCO)C2CCCCC2)c1`, for which the T/C (dose: 100.0 mg/kg/injection, schedule: Q04DX003 (ip), vehicle: saline with Tween-80) is 100 % of control; the T/C (dose: 200.0 mg/kg/injection, schedule: Q04DX003 (ip), vehicle: saline with Tween-80) was 90 % of control; the T/C (dose: 400.0 mg/kg/injection, schedule: Q04DX003 (ip), vehicle: saline with Tween-80) was 88 % of control.

On to `CCN(CC)CCNc1cc2c(c3sc4ccccc4c(=O)c13)CCCC2`, for which the T/C was 113 % of control (dose: 7.8 mg/kg/injection, schedule: Q01DX005 (ip), vehicle: other); 110 % of control (dose: 15.6 mg/kg/injection, schedule: Q01DX005 (ip), vehicle: other); 113 % of control (dose: 31.3 mg/kg/injection, schedule: Q01DX005 (ip), vehicle: other); 101 % of control (dose: 62.5 mg/kg/injection, schedule: Q01DX005 (ip), vehicle: other); 104 % of control (dose: 125.0 mg/kg/injection, schedule: Q01DX005 (ip), vehicle: other).

In the case of `c1ccc(-c2n[nH]c(-c3[nH]nc(-c4ccccc4)c3-c3ccccc3)c2-c2ccccc2)cc1`, the T/C reads like this: under setting [5], 100 % of control; under setting [6], 103 % of control; under setting [7], 101 % of control.

For `c1cc2c(ccc3c4c([nH]c32)CCCC4)cn1`, the T/C runs as follows: (dose: 12.5 mg/kg/injection, schedule: Q01DX009 (ip), vehicle: saline with Tween-80) 101 % of control; under setting [8], 105 % of control; under setting [9], 99 % of control; under setting [10], 98 % of control.

In the case of `O=C(SCCO)SCCO`, the T/C by setting is: under setting [11], 86 % of control; under setting [12], 89 % of control; under setting [13], 88 % of control.

As to `Cc1ccc2c(c1)C1(SC(C)C(=O)N1c1ccc(Cl)cc1)C(=O)N2` (stereo not drawn), the T/C (dose: 30.0 mg/kg/injection, schedule: Q01DX005 (ip), vehicle: saline with Tween-80) was 103 % of control; the T/C under setting [5] was 114 % of control and 121 % of control; the T/C under setting [6] is 119 % of control.

`CCN(CC)CCn1c(C)nc2c1C(=O)c1nc(C)n(CCN(CC)CC)c1C2=O`: the T/C was 100 % of control (dose: 6.25 mg/kg/injection, schedule: Q01DX005 (ip), vehicle: saline) and 109 % of control (dose: 12.5 mg/kg/injection, schedule: Q01DX005 (ip), vehicle: saline).

Turning to `CCC1=C[C@H]2CN(CCc3c([nH]c4ccccc34)[C@@](C(=O)OC)(c3cc4c(cc3OC)N(C)[C@H]3[C@@](O)(C(=O)OC)[C@H](OC(C)=O)[C@]5(CC)C=CCN6CC[C@]43[C@@H]65)C2)C1`, the T/C by setting is: under setting [1], 109 % of control; under setting [2], 162 % of control; (dose: 0.2 mg/kg/injection, schedule: Q01DX009 (ip), vehicle: saline) 151 % of control; under setting [3], 106 % of control; (dose: 0.4 mg/kg/injection, schedule: Q01DX009 (ip), vehicle: saline) 163 % of control; (dose: 0.5 mg/kg/injection, schedule: Q04DX003 (ip), vehicle: water) 151 % of control. Further, the T/C is, setting by setting: (dose: 0.8 mg/kg/injection, schedule: Q01DX009 (ip), vehicle: saline) 178 % of control; (dose: 1.0 mg/kg/injection, schedule: Q04DX003 (ip), vehicle: water) 169 % of control; (dose: 2.0 mg/kg/injection, schedule: Q04DX003 (ip), vehicle: water) 205 % of control; under setting [4], 241 % of control; (dose: 8.0 mg/kg/injection, schedule: Q04DX003 (ip), vehicle: water) 87 % of control.

As to `Oc1ccc(O)c(-n2nc3ccccc3n2)c1`, the T/C by setting is: under setting [5], 104 % of control; under setting [6], 103 % of control; under setting [7], 100 % of control.

Turning to `Cn1nnc2c(Cl)nccc21`, the T/C was 105 % of control (dose: 100.0 mg/kg/injection, schedule: Q04DX002 (ip), vehicle: saline); 100 % of control (dose: 200.0 mg/kg/injection, schedule: Q04DX002 (ip), vehicle: saline); 102 % of control (dose: 400.0 mg/kg/injection, schedule: Q04DX002 (ip), vehicle: saline).

With `CCCCCCOC(=O)Nc1nnc(SSC2=NN=CC2NC(=O)OCCCCCC)s1` (stereo not drawn), the T/C (dose: 100.0 mg/kg/injection, schedule: Q01DX001 (ip), vehicle: saline) was 91 % of control; the T/C (dose: 200.0 mg/kg/injection, schedule: Q01DX001 (ip), vehicle: saline) was 90 % of control; the T/C (dose: 400.0 mg/kg/injection, schedule: Q01DX001 (ip), vehicle: saline) was 90 % of control.

On to `COCCCn1c(-c2ccc(Cl)cc2)nn2c(=O)c3ccccc3nc2c1=O`, for which the T/C by setting is: under setting [11], 97 % of control; under setting [12], 92 % of control; under setting [13], 92 % of control.

Take `CN(C)c1cc(N(C)C)c2cc(Cl)ccc2n1`: the T/C reads like this: (dose: 50.0 mg/kg/injection, schedule: Q01DX009 (ip), vehicle: Klucel (hydroxypropylcellulose) (HPC)) 106 % of control; (dose: 100.0 mg/kg/injection, schedule: Q01DX009 (ip), vehicle: Klucel (hydroxypropylcellulose) (HPC)) 100 % of control.

Turning to `CSc1nc(N)nc2c1ncn2C1CC(O)C(CO)O1` (stereo not drawn), the T/C reads like this: (dose: 50.0 mg/kg/injection, schedule: Q04DX003 (ip), vehicle: Klucel (hydroxypropylcellulose) (HPC)) 94 % of control; (dose: 100.0 mg/kg/injection, schedule: Q04DX003 (ip), vehicle: Klucel (hydroxypropylcellulose) (HPC)) 100 % of control; (dose: 200.0 mg/kg/injection, schedule: Q04DX003 (ip), vehicle: Klucel (hydroxypropylcellulose) (HPC)) 107 % of control; (dose: 400.0 mg/kg/injection, schedule: Q04DX003 (ip), vehicle: Klucel (hydroxypropylcellulose) (HPC)) 106 % of control.

Take `O=[N+]([O-])c1cc(Cl)c(Cl)cc1[N+](=O)[O-]`: the T/C under setting [9] was 98 % of control and the T/C under setting [10] was 111 % of control.

On to `CC(C)N(C(=S)/N=C1/SC(C)S(=O)(=O)N1C)C(C)C` (stereo not drawn), for which the T/C is 117 % of control under setting [8], 97 % of control under setting [9] and 100 % of control under setting [10].
